Assay results: US6262094A (priority 1999, dated 2001)
≈ marks a conversion by molar mass, not a printed value.

Columns and labels:
Type in all cases: cell-based
[1] = tested on: PC-3 (ATCC CRL 1435), human prostate adenocarcinoma; details: 120 h, PC-3, incubation period of 5 days, MTT
[2] = tested on: KB-3.1 (DSM ACC 158), human cervix carcinoma; details: KB 3-1, 120 h, KB-3.1, incubation period of 5 days, MTT
[3] = tested on: U-937 (DSM ACC 5), human histiocytic lymphoma; test: Growth inhibition, WST-1 reduction in microtiter plates; details: 120 h, U-937, incubation period of 5 days, read-out: IC50 K-562/U-937 leukemia
[4] = tested on: SK-OV-3 (ATCC HTB-77), human ovary adenocarcinoma; details: 120 h, SK-OV-3, incubation period of 5 days, MTT
[5] = tested on: A-549 (DSM ACC 107), human lung carcinoma; details: A549, 120 h, A-549, incubation period of 5 days, MTT
[6] = tested on: K-562 (ATCC CCL-243), human chronic myelogenous leukemia; test: Growth inhibition, WST-1 reduction in microtiter plates; details: K562, 120 h, K-562, incubation period of 5 days, read-out: IC50 K-562/U-937 leukemia

Row | SMILES | IC50 [1] | IC50 [2] | IC50 [3] | IC50 [4] | IC50 [5] | IC50 [6]
1 | C/C(=C\c1csc(CN)n1)[C@@H]1C[C@@H]2O[C@]2(C)CCC[C@H](C)[C@H](O)[C@@H](C)C(=O)C(C)(C)[C@@H](O)CC(=O)O1 [21-amino-epo B, [1S-[1R*,3R*(E),7R*,10S*,11R*,12R*,16S*]]-3-[2-[2-(Aminomethyl)-4-thiazolyl]-1-methylethenyl]-7,11-dihydroxy-8,8,10,12,16-pentamethyl-4,17-dioxabicyclo[14.1.0]heptadecane-5,9-dione] | 1.5 ng/mL (≈ 2.87 nM) | 0.4 ng/mL (≈ 0.765 nM) |  |  |  | 
2 | C=Cc1nc(/C=C(\C)[C@@H]2C[C@@H]3O[C@@H]3CCC[C@H](C)[C@H](O)[C@@H](C)C(=O)C(C)(C)[C@@H](O)CC(=O)O2)cs1 [20-vinyl-epo A, [1S-[1R*,3R*(E),7R*,10S*,11R*,12R*,16S*]]-3-[2-(2-Ethenyl-4-thiazolyl)-1-methylethenyl]-7,11-dihydroxy-8,8,10,12-tetramethyl-4,17-dioxabicyclo[14.1. 0]heptadecane-5,9-dione] | 0.4 ng/mL (≈ 0.791 nM) | 3 ng/mL (≈ 5.93 nM) | 1.5 ng/mL (≈ 2.97 nM) | 1 ng/mL (≈ 1.98 nM) |  | 
3 | C/C(=C\c1csc(CN=[N+]=[N-])n1)[C@@H]1C[C@@H]2O[C@]2(C)CCC[C@H](C)[C@H](O)[C@@H](C)C(=O)C(C)(C)[C@@H](O)CC(=O)O1 [21-azido-epo B, [1S-[1R*,3R* (E),7R*, 10S*,11R*,12R*,16S*]]-3-[2-[2-(Azidomethyl)-4-thiazolyl]-1-methylethenyl]-7,11-dihydroxy-8,8,10,12,16-pentamethyl-4,17-dioxabicyclo[14.1. 0]heptadecane-5,9-dione] | 0.4 ng/mL (≈ 0.729 nM) | 0.5 ng/mL (≈ 0.911 nM) |  |  |  | 
4 | C/C(=C\c1csc(CN)n1)[C@@H]1C[C@@H]2O[C@@H]2CCC[C@H](C)[C@H](O)[C@@H](C)C(=O)C(C)(C)[C@@H](O)CC(=O)O1 [21-amino-epo A] | 3 ng/mL (≈ 5.9 nM) | 4 ng/mL (≈ 7.86 nM) | 3 ng/mL (≈ 5.9 nM) | 4 ng/mL (≈ 7.86 nM) |  | 
5 | C/C(=C\c1csc(CCl)n1)[C@@H]1C[C@@H]2O[C@@H]2CCC[C@H](C)[C@H](O)[C@@H](C)C(=O)C(C)(C)[C@@H](O)CC(=O)O1 [21-chloro-epo A] |  | 60 ng/mL (≈ 114 nM) |  |  | 10 ng/mL (≈ 18.9 nM) | 12 ng/mL (≈ 22.7 nM)
